The values below come from patent publication US5667764A, “Compounds, compositions and methods for binding bio-affecting substances to surface membranes of bio-particles” (Zynaxis, Inc., priority 1992, dated 1997).

SMILES strings stand for the structures.

In one assay the test system is membrane ghosts. In words: Membrane binding stability (MBS) assay in membrane ghosts with 5% albumin. The following applies: 24 hours, Table III. The source says:
Determination of Membrane Binding Stability
For example, very stable binding to membranes might be required for applications such as delivery of therapeutic radionuclides to tumor sites, as loss of compound could lead to the radionuclide producing its toxic effect at non-tumor sites. On the other hand, more rapid loss of compound from biomembranes may be desirable for application involving controlled delivery rates of therapeutic agents. Accordingly, there is described hereinbelow an assay for determining MBS under conditions approximating those found in vivo.
In carrying out this assay, approximately physiological concentrations of serum albumin (5%) are used. […] To better approximate the effects of large fluid volumes to which labelled cells are exposed in vivo, the assay for MBS is carried out by suspending a decreasing number of labeled membrane ghosts in a fixed volume of albumin-containing saline. At 24 hours, the total amount of label present is determined by sampling the well mixed suspension; subsequently, the membrane ghosts are pelleted by centrifugation and the amount of label released into the supernatant is determined and expressed as a percent of total label. Percent retention is plotted against number of ghosts per ml. of suspension, and MBS is determined as the area under the curve between 5×10^7 ghosts/ml. and 4×10^8 ghosts/ml.

The test system of assay [1] is rabbit hind limb (femoral arterial bed), substance P receptors. The assay can be described thus: Vascular response in rabbit blood perfused hind limb preparation. Type of assay: in vivo. The text has this: The in vivo receptor pharmacology of the compound produced in Example 3d., above, was studied in a rabbit blood perfused hind limb preparation similar to that described by U. Forstermann et al., J. Pharmacol. Exp. Ther., 234: 1055-61 (1987). Blood from a pentobarbital anesthetized, artificially ventilated rabbit was withdrawn from a cannulated carotid artery, passed within medical grade silastic tubing through a constant speed roller pump, and directed to a cannulated femoral artery. Distal perfusion pressure in the femoral arterial bed was measured (in mm Hg) by means of a micropressure transducer (Millar) passed down the perfusion tubing so as to lie just beyond the tip of the femoral catheter. Initially, pump speed was adjusted so that distal perfusion pressure approximated systemic mean arterial blood pressure after which blood flow was kept constant for the remainder of each experiment. Changes in resistance then varied directly as distal perfusion pressure in a manner similar to that described by Ohm's law, such that:
Vascular Resistance=Perfusion Pressure Blood Flow
Thus, by maintaining blood flow constant for the duration of each experiment, changes in distal perfusion pressure directly reflected vascular resistance such that a decrease in pressure signifies vasodilation and an increase in pressure signifies vasoconstriction. Direct injection into the perfusion circuit could thus be used to assess the vascular biology and pharmacology of substances believed to exert actions on in vivo vascular smooth muscle tone.

Assay [2] has as its system red blood cell ghosts (plasma membrane). In words: Membrane retention coefficient (MRC) in red blood cell ghosts. To be noted: for Δ MRC: change in MRC to 24 hr. The format is binding. Here is the method: Determination of Membrane Retention Coefficient
The membrane retention coefficient (MRC) provides information regarding how well a given compound is retained in the plasma membrane of a cell and is determined as described below.
Generation of red blood cell ghosts for use as a model membrane is achieved by centrifuging whole blood at 300×g for 15 minutes, removal of the plasma and resuspension of the cell pellet in 0.83% (w/v) ammonium chloride. The ghosts are pelleted from the ammonium chloride by centrifuging at 10,000×g for 10 minutes. This ammonium chloride washing procedure is repeated a minimum of five times to insure that complete release of hemoglobin from the cells has occured. The ghosts are labeled with the compound in question at a concentration allowing for detection of the labeled ghosts by instrumental analysis or fluorescent microscopic methods, and at a concentration similar to those that would be used to label cells for a specific application as described above. For the determinations hereinbelow stock solutions of the compounds in question were prepared in ethanol at a molar concentration of 2×10^-3, and working dilutions of the compounds were prepared in iso-osmotic sucrose (52 g/500 ml distilled water). After incubation of the ghosts at an approximate concentration of 1×10^9 ghosts/ml in the working dilutions of the compounds for 10 minutes, the samples were centrifuged at 10,000×g to pellet the ghosts and the staining solution was aspirated from the samples. The labeled ghosts were resuspended in 1 ml of phosphate buffered saline solution containing 10% fetal bovine serum (PBS-FBS). Triplicate 20 ul aliquots were removed from each sample for the determination of the amount of total compound present. The samples were centrifuged as described above and triplicate 20 ul aliquots were removed from the supernatant for quantitative determination of amount of unbound compound present.
After sampling, the supernatant was aspirated and the red cell ghost pellet was resuspended in 1.0 ml of the PBS-FBS, which was once again sampled as described above. This procedure was repeated at least six times, allowing for detection of rapidly released compounds and was monitored after times equal to or greater than 24 hours to allow for the detection of more slowly released compounds. For the determination of the amount of compound present in each sample, the 20 ul aliquots were extracted into 3.0 ml of n-butanol by shaking. The samples were centrifuged at 3000×g to remove membrane debris and the butanol fractions were assayed for compound concentration. Fluorescent compounds are assayed in this manner using peak excitation and emission wave lengths for the particular compounds being assayed to determine the fluorescence units for each sample.
The determination of the amount of compound present in each sample as described above allows for the calculation of the MRC for each washing or fixed time point. The value is obtained by the following formula: […]
wherein CT represents the amount of compound present (in units determined by the method used to assay the compound) in the total sample and CS represents the amount of compound present in the supernatant sample for that particular time point. The comparison of the MRC values defines criteria for identification of the compounds of this invention, these criteria being: 1) the MRC values determined for each washing steps should have a value of at least about 90 and 2) the percent difference between MRC values over at least a 24 hour time period should be less than about 10%. [drawing 14]
The data provided in Table I below are the results from one experiment and serve as an example of the MRC determination. […]

With `CCCCCCCCCCCCCCCCCCCCCCN1C(=CC=Cc2sc3ccccc3[n+]2CCC)Sc2ccccc21` [V], the MBS in the assay with membrane ghosts is reported as 64 ± 3.4%.
In the assay on membrane ghosts, `CCCCCCCCCCCCCCN1C(=CC=CC2=[N+](CCC)c3ccccc3C2(C)C)C(C)(C)c2ccccc21` [AC] returned an MBS of 10 ± 2.1%.
On to `CC(C)NCC(O)c1ccc(O)c(O)c1` (centres unmarked) [isoproterenol, reference compound], for which, in assay [1] (during infusion of antagonist), the “Effect of antagonist [D-Pro^2,D-Trp^7.9]-substance P on the response” value is “not antagonized by the SP antagonist”. In assay [1] (local injection, no antagonist), the “Hind-limb perfusion pressure response” value was “dose related decrease in perfusion pressure”.
As to `CCCCCCCCCCCCCCCCCCN1C(=CC=Cc2oc3ccccc3[n+]2CCCCCCCC)Oc2ccccc21` [I], in assay [2], the “Membrane retention coefficient (MRC), 24 HR” value turned out to be 97.65; the “Δ MRC” value turned out to be 2.08%; the “Membrane retention coefficient (MRC), WASH 1” value was 94.69; the “Membrane retention coefficient (MRC), WASH 2” value was determined as 98.24. In assay [2], the “Membrane retention coefficient (MRC), WASH 3” value worked out at 98.32; the “Membrane retention coefficient (MRC), WASH 4” value is 98.78; the “Membrane retention coefficient (MRC), WASH 5” value was found to be 98.96; the “Membrane retention coefficient (MRC), WASH 6” value is given as 99.73.
In the case of `CCCCCCCCCCCCCCCCCC[n+]1c2cc(N(C)C)ccc2cc2ccc(N(C)C)cc21` [M], in assay [2], the “Membrane retention coefficient (MRC), 24 HR” value came to 42.88; the “Δ MRC” value was determined as 55.79%; the “Membrane retention coefficient (MRC), WASH 1” value is 91.01; the “Membrane retention coefficient (MRC), WASH 2” value was 95.12. Also, in assay [2], the “Membrane retention coefficient (MRC), WASH 3” value stood at 95.82; the “Membrane retention coefficient (MRC), WASH 4” value turned out to be 96.42; the “Membrane retention coefficient (MRC), WASH 5” value is reported as 96.27; the “Membrane retention coefficient (MRC), WASH 6” value is 97.01.
As for `CCCCCCCCCCN1C(=CC=CC2=[N+](CCCCCCCCCC)c3ccccc3C2(C)C)C(C)(C)c2ccccc21` [B], in assay [2], the “Membrane retention coefficient (MRC), 24 HR” value was found to be 54.08; the “Δ MRC” value was 42.95%; the “Membrane retention coefficient (MRC), WASH 1” value is on record as 83.28; the “Membrane retention coefficient (MRC), WASH 2” value was found to be 92.36. Further, in assay [2], the “Membrane retention coefficient (MRC), WASH 3” value amounted to 94.63; the “Membrane retention coefficient (MRC), WASH 4” value is 94.94; the “Membrane retention coefficient (MRC), WASH 5” value was determined as 95.33; the “Membrane retention coefficient (MRC), WASH 6” value is on record as 94.80.
With `CCCCCCCCCCCCCCCCCCCCCCCCCC[n+]1c2cc(N(C)C)ccc2cc2ccc(N(C)C)cc21` [N], in assay [2], the “Membrane retention coefficient (MRC), 24 HR” value is 98.27; the “Δ MRC” value is reported as 0.61%; the “Membrane retention coefficient (MRC), WASH 1” value is recorded as 95.97; the “Membrane retention coefficient (MRC), WASH 2” value worked out at 97.51. In assay [2], the “Membrane retention coefficient (MRC), WASH 3” value is 98.32; the “Membrane retention coefficient (MRC), WASH 4” value is on record as 98.48; the “Membrane retention coefficient (MRC), WASH 5” value was 98.71; the “Membrane retention coefficient (MRC), WASH 6” value is 98.88.
Turning to `CCC[n+]1c(C=CC=C2Oc3ccccc3N2CCC(C)CCCC(C)CCCC(C)CCCC(C)C)oc2ccccc21` (centres unmarked) [F], in assay [2], the “Membrane retention coefficient (MRC), 24 HR” value is listed as 36.77; the “Δ MRC” value came to 61.64%; the “Membrane retention coefficient (MRC), WASH 1” value is reported as 88.82; the “Membrane retention coefficient (MRC), WASH 2” value was 93.94. For the same compound, in assay [2], the “Membrane retention coefficient (MRC), WASH 3” value is given as 95.15; the “Membrane retention coefficient (MRC), WASH 4” value turned out to be 95.26; the “Membrane retention coefficient (MRC), WASH 5” value was 94.51; the “Membrane retention coefficient (MRC), WASH 6” value is given as 96.64.
With `CCCCCCCCCCCCCCCCCCCCCCN1C(=CC=Cc2oc3ccccc3[n+]2CCC)Oc2ccccc21` [U], the MBS in the assay with membrane ghosts was found to be 47 ± 3.1%.
In the assay on membrane ghosts, `CCCCCCCCCCCCCCCCCCN1C(=CC=Cc2oc3ccccc3[n+]2CCCCCCCCCCCCCCCCCC)Oc2ccccc21` [Y] showed an MBS of 93 ± 1.0%.
On to `CCCCCCCCCCCCCCN1C(=CC=Cc2sc3ccccc3[n+]2CCCCCCCCCCCCCC)Sc2ccccc21` [X], for which, in the assay on membrane ghosts, the MBS was 91 ± 1.3%.
In the assay with membrane ghosts, `CCCCCCCCCCCCCCN1C(=CC=Cc2oc3ccccc3[n+]2CCCCCCCCCCCCCC)Oc2ccccc21` [W] displayed an MBS of 77 ± 1.1%.
With `CCCCCCCCCCCCCCCCCCCCCC[n+]1c2cc(N(C)C)ccc2cc2ccc(N(C)C)cc21` [L], in assay [2], the “Membrane retention coefficient (MRC), 24 HR” value was found to be 96.82; the “Δ MRC” value was determined as 3.12%; the “Membrane retention coefficient (MRC), WASH 1” value was found to be 97.90; the “Membrane retention coefficient (MRC), WASH 2” value is 98.89. For the same compound, in assay [2], the “Membrane retention coefficient (MRC), WASH 3” value came to 98.90; the “Membrane retention coefficient (MRC), WASH 4” value came out at 99.18; the “Membrane retention coefficient (MRC), WASH 5” value came to 99.09; the “Membrane retention coefficient (MRC), WASH 6” value was 99.22.
Take `CCCCCCCCCCCCCCCCCCCCCCN1C(=CC=Cc2oc3ccccc3[n+]2CCC)Oc2ccccc21` [K]: in assay [2], the “Membrane retention coefficient (MRC), 24 HR” value stood at 97.90; the “Δ MRC” value is reported as 1.56%; the “Membrane retention coefficient (MRC), WASH 1” value worked out at 97.35; the “Membrane retention coefficient (MRC), WASH 2” value came out at 98.47. In addition, in assay [2], the “Membrane retention coefficient (MRC), WASH 3” value worked out at 98.16; the “Membrane retention coefficient (MRC), WASH 4” value was 98.99; the “Membrane retention coefficient (MRC), WASH 5” value turned out to be 99.01; the “Membrane retention coefficient (MRC), WASH 6” value was found to be 99.46.
Take `CCCCCCCCCCCCCCCCCCN1C(=CC=Cc2sc3ccccc3[n+]2CCCCCCCCCCCCCCCCCC)Sc2ccccc21` [AA]: in the assay with membrane ghosts, the MBS is 94 ± 1.5%.
